From the NIST ThermoML archive (doi:10.1016/j.jct.2017.11.007)
Numbers after ± are expanded uncertainties.

Experiment: mn = molality of the nth substance listed, in mol/kg
Conditions: 74.66 kPa, Liquid; for speed of sound: Frequency=3 MHz, Single path-length method; for mass density: Vibrating tube method

Cc1ccnc([N-]S(=O)(=O)c2ccc(N)cc2)n1.[Na+] + O
Conditions	mass density, 278.15 K [kg/m3]	mass density, 283.15 K [kg/m3]	mass density, 288.15 K [kg/m3]	speed of sound, 278.15 K [m/s]	speed of sound, 283.15 K [m/s]	speed of sound, 288.15 K [m/s]	speed of sound, 293.15 K [m/s]
m1 = 0.005	1000.56 ± 0.11	1000.28 ± 0.11	999.679 ± 0.11	1428.1 ± 1.2	1448.9 ± 1.2	1467.5 ± 1.2	1483.7 ± 1.2
m1 = 0.008	1000.91 ± 0.11	1000.63 ± 0.11	1000.02 ± 0.11	1428.7 ± 1.2	1449.4 ± 1.2	1467.8 ± 1.2	1484 ± 1.2
m1 = 0.01	1001.15 ± 0.11	1000.87 ± 0.11	1000.25 ± 0.11	1429.2 ± 1.2	1449.8 ± 1.2	1468.2 ± 1.2	1484.4 ± 1.2
m1 = 0.01486	1001.72 ± 0.11	1001.42 ± 0.11	1000.8 ± 0.11	1430.2 ± 1.2	1450.8 ± 1.2	1469.3 ± 1.2	1485.3 ± 1.2
m1 = 0.02002	1002.33 ± 0.11	1002.02 ± 0.11	1001.39 ± 0.11	1431 ± 1.2	1451.6 ± 1.2	1469.9 ± 1.2	1486.1 ± 1.2
m1 = 0.025	1002.91 ± 0.11	1002.6 ± 0.11	1001.96 ± 0.11	1432.2 ± 1.2	1452.7 ± 1.2	1470.9 ± 1.2	1487 ± 1.2
m1 = 0.03001	1003.5 ± 0.11	1003.18 ± 0.11	1002.53 ± 0.11	1433.4 ± 1.2	1453.7 ± 1.2	1471.8 ± 1.2	1487.8 ± 1.2
m1 = 0.035	1004.08 ± 0.11	1003.75 ± 0.11	1003.09 ± 0.11	1434.2 ± 1.2	1454.6 ± 1.2	1472.7 ± 1.2	1488.6 ± 1.2
m1 = 0.03931	1004.59 ± 0.11	–	–	1435.5 ± 1.2	–	–	–
m1 = 0.04002	–	1004.33 ± 0.11	1003.66 ± 0.11	–	1455.6 ± 1.2	1473.7 ± 1.2	1489.5 ± 1.2
m1 = 0.04499	–	–	1004.23 ± 0.11	–	–	1474.6 ± 1.2	1490.3 ± 1.2
m1 = 0.045	1005.25 ± 0.11	1004.9 ± 0.11	–	1436.4 ± 1.2	1456.7 ± 1.2	–	–
m1 = 0.04968	–	1005.43 ± 0.11	–	–	1457.4 ± 1.2	–	–
m1 = 0.05	1005.83 ± 0.11	–	1004.8 ± 0.11	1437.5 ± 1.2	–	1475.4 ± 1.2	1491.2 ± 1.2
m1 = 0.05501	–	–	1005.37 ± 0.11	–	–	1476.5 ± 1.2	1492 ± 1.2
m1 = 0.05502	1006.42 ± 0.11	1006.05 ± 0.11	–	1438.5 ± 1.2	1458.5 ± 1.2	–	–
m1 = 0.05998	1007 ± 0.11	1006.62 ± 0.11	1005.94 ± 0.11	1439.4 ± 1.2	1459.4 ± 1.2	1477.2 ± 1.2	1492.8 ± 1.2
